Experimental data: ChEMBL document CHEMBL1201862, “PubChem BioAssay data set” (2004)
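Interpolation was linear, between the two tested concentrations surrounding the appropriate level; five concentrations were tested over 48 hours in 96-well plates. GI50 marks 50% less growth.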 Active and inactive are the calls of the source. No stated cut-off is given here; in the data, active = GI50 up to about 1.1 µM and inactive = higher.

Columns and labels:
Assay in all cases: inhibition of tumour cell growth, NCI panel, 48 h
SK-MEL-2 = tested on: SK-MEL-2
KM12 = tested on: KM12
DMS-114 = tested on: DMS-114
SW-620 = tested on: SW-620
XF498 = tested on: XF498
SK-MEL-5 = tested on: SK-MEL-5
LXFL 529 = tested on: LXFL 529
LOX IMVI = tested on: LOX IMVI
Malme-3M = tested on: Malme-3M
SK-OV-3 = tested on: SK-OV-3
MOLT-4 = tested on: MOLT-4
OVCAR-5 = tested on: OVCAR-5
CAKI-1 = tested on: CAKI-1
EKVX = tested on: EKVX
HCC 2998 = tested on: HCC 2998
SNB-75 = tested on: SNB-75
HL-60 = tested on: HL-60
HCT-116 = tested on: HCT-116

Row | SMILES | GI50 (SK-MEL-2) | GI50 (KM12) | GI50 (DMS-114) | GI50 (SW-620) | GI50 (XF498) | GI50 (SK-MEL-5) | GI50 (LXFL 529) | GI50 (LOX IMVI) | GI50 (Malme-3M) | GI50 (SK-OV-3) | GI50 (MOLT-4) | GI50 (OVCAR-5) | GI50 (CAKI-1) | GI50 (EKVX) | GI50 (HCC 2998) | GI50 (SNB-75) | GI50 (HL-60) | GI50 (HCT-116)
1 | CN(C)NC1=C([N+](=O)[O-])C=NN(c2ccccc2)C1 | 1.71 µM (inactive) | 2.52 µM (inactive) | 1.84 µM (inactive) | 1.89 µM (inactive) | 2.36 µM (inactive) | 2.56 µM (inactive) | 1.65 µM (inactive) | 1.59 µM (inactive) | 1.96 µM (inactive) | 1.97 µM (inactive) | 2.09 µM (inactive) | 1.67 µM (inactive) | 1.95 µM (inactive) | 1.75 µM (inactive) | 1.79 µM (inactive) | 1.73 µM (inactive) | 2.04 µM (inactive) | 1.82 µM (inactive)
2 | COc1ccc(OC)c(NC(=O)CCC/C(CC(=O)c2ccc(O)c(OC)c2)=N\NC(=O)C[N+](C)(C)C)c1 | > 100 µM (inactive) | > 100 µM (inactive) | > 100 µM (inactive) | > 100 µM (inactive) | > 100 µM (inactive) | > 100 µM (inactive) | > 100 µM (inactive) | > 100 µM (inactive) | > 100 µM (inactive) | > 100 µM (inactive) | > 100 µM (inactive) | > 100 µM (inactive) | > 100 µM (inactive) | > 100 µM (inactive) | > 100 µM (inactive) | 84.7 µM (inactive) | > 100 µM (inactive) | 
3 | O=C(O)/C=C\C(=O)c1ccc(Cl)cc1 | 28.6 µM (inactive) | 52.1 µM (inactive) | 21.4 µM (inactive) | 24 µM (inactive) | 27.7 µM (inactive) | > 83.9 µM (inactive) | 21.8 µM (inactive) | 24.9 µM (inactive) | 18.9 µM (inactive) | > 100 µM (inactive) | 24.7 µM (inactive) | > 100 µM (inactive) | 24.7 µM (inactive) | > 56.4 µM (inactive) | > 100 µM (inactive) | 44 µM (inactive) | 23.5 µM (inactive) | 25.2 µM (inactive)
4 | Cc1cc([N+](=O)[O-])c(S(=O)(=O)c2ccccc2)c([N+](=O)[O-])c1 | 20 µM (inactive) | 17.1 µM (inactive) | 3.14 µM (inactive) | 3.95 µM (inactive) | 4.35 µM (inactive) | 14.2 µM (inactive) | 3.66 µM (inactive) | 2.57 µM (inactive) | 13.6 µM (inactive) | 24.8 µM (inactive) | 3.39 µM (inactive) | 18.6 µM (inactive) | 3.62 µM (inactive) | 24.2 µM (inactive) | 21.2 µM (inactive) | 22.5 µM (inactive) | 2.82 µM (inactive) | 9.75 µM (inactive)
5 | COc1cc(Br)c(/C=N/N=C(\N)NO)cc1OC | 26.1 µM (inactive) | 15.5 µM (inactive) | 12.4 µM (inactive) | 35.1 µM (inactive) | 13.6 µM (inactive) | 6.78 µM (inactive) | 10.9 µM (inactive) | 17.6 µM (inactive) | 21.1 µM (inactive) | 10.6 µM (inactive) | 57.1 µM (inactive) | 21.8 µM (inactive) | 14.7 µM (inactive) | 7.21 µM (inactive) | 12.3 µM (inactive) | 21.3 µM (inactive) | 26.9 µM (inactive) | 15.2 µM (inactive)
6 | O=C(c1ccc(Cl)cc1)c1ccc(OCCCOc2ccc(C(=O)c3ccc(Cl)cc3)cc2)cc1 | > 100 µM (inactive) | > 100 µM (inactive) | > 100 µM (inactive) | > 100 µM (inactive) | > 100 µM (inactive) | > 100 µM (inactive) | > 100 µM (inactive) | > 100 µM (inactive) | > 100 µM (inactive) | > 100 µM (inactive) | > 100 µM (inactive) | > 100 µM (inactive) | > 100 µM (inactive) | > 100 µM (inactive) | > 100 µM (inactive) | 33.6 µM (inactive) | > 100 µM (inactive) | > 100 µM (inactive)
7 | [O-][S+]1CSCS1 (configuration not stated) | > 100 µM (inactive) | > 100 µM (inactive) | > 100 µM (inactive) | > 100 µM (inactive) | > 100 µM (inactive) | > 100 µM (inactive) | > 100 µM (inactive) | > 100 µM (inactive) | > 100 µM (inactive) | > 100 µM (inactive) | > 100 µM (inactive) | > 100 µM (inactive) | > 100 µM (inactive) | > 100 µM (inactive) | > 100 µM (inactive) | > 100 µM (inactive) | > 100 µM (inactive) | > 100 µM (inactive)
8 | C#Cc1cccc(N2C(=O)CC(=P(c3ccccc3)(c3ccccc3)c3ccccc3)C2=O)c1 | 84.7 µM (inactive) |  | 19.9 µM (inactive) | 54.6 µM (inactive) | 0.405 µM (active) | 25.6 µM (inactive) | 11.8 µM (inactive) |  | 80 µM (inactive) | > 100 µM (inactive) | 51.8 µM (inactive) | 57 µM (inactive) | > 100 µM (inactive) | 44.2 µM (inactive) | 70.8 µM (inactive) | 91.8 µM (inactive) | 15.1 µM (inactive) | 32.6 µM (inactive)
9 | CC1(c2ccccc2)CC12C(=O)NC(=O)NC2=O (configuration not stated) | > 100 µM (inactive) | > 100 µM (inactive) | > 100 µM (inactive) | > 100 µM (inactive) | > 100 µM (inactive) | > 100 µM (inactive) | > 100 µM (inactive) | > 100 µM (inactive) | > 100 µM (inactive) | > 100 µM (inactive) | > 100 µM (inactive) | > 100 µM (inactive) | > 100 µM (inactive) | > 100 µM (inactive) | > 100 µM (inactive) |  | > 100 µM (inactive) | > 100 µM (inactive)
10 | Cc1cc(NS(=O)(=O)c2ccc(Nc3c4ccccc4nc4c(C(=O)Nc5ccc(S(=O)(=O)N=C(N)N)cc5)ccc(Cl)c34)cc2)no1 |  | 87.9 µM (inactive) | 27.1 µM (inactive) |  | 31.4 µM (inactive) | > 100 µM (inactive) | 31.3 µM (inactive) | 19.6 µM (inactive) | 46.7 µM (inactive) | 31.7 µM (inactive) | 24.7 µM (inactive) | > 100 µM (inactive) | 54.2 µM (inactive) | 65 µM (inactive) | 38.5 µM (inactive) | 25.9 µM (inactive) | 22.2 µM (inactive) | 53.8 µM (inactive)
11 | COCOCCCCCO[Si](C)(C)C(C)(C)C | 16 µM (inactive) | 23.2 µM (inactive) | 17.5 µM (inactive) | 17.3 µM (inactive) | 15.7 µM (inactive) | 16.5 µM (inactive) | 26.9 µM (inactive) | 16.5 µM (inactive) | 18.2 µM (inactive) | 40.6 µM (inactive) | 16.1 µM (inactive) | 16.9 µM (inactive) |  | 20 µM (inactive) | 17.7 µM (inactive) | 30.3 µM (inactive) | 7.1 µM (inactive) | 12.9 µM (inactive)
12 | CC1CC(C)C(=O)C(C(=O)CC2CC(=O)NC2=O)C1 (configuration not stated) |  | > 100 µM (inactive) | > 100 µM (inactive) | > 100 µM (inactive) | > 100 µM (inactive) |  | > 100 µM (inactive) | > 100 µM (inactive) | > 100 µM (inactive) | > 100 µM (inactive) |  | > 100 µM (inactive) | > 100 µM (inactive) | > 100 µM (inactive) | > 100 µM (inactive) | > 100 µM (inactive) | > 100 µM (inactive) | > 100 µM (inactive)
13 | CCCCCC(=O)Nc1nc(O)c2[nH]cnc2n1 | > 100 µM (inactive) | > 100 µM (inactive) | > 100 µM (inactive) | > 100 µM (inactive) | > 100 µM (inactive) | > 100 µM (inactive) | > 100 µM (inactive) |  | > 100 µM (inactive) | > 100 µM (inactive) | > 100 µM (inactive) | > 100 µM (inactive) | > 100 µM (inactive) | > 100 µM (inactive) | > 100 µM (inactive) | > 100 µM (inactive) | > 100 µM (inactive) | > 100 µM (inactive)
14 | C=C=C(C(=O)OC)[S+]([O-])c1ccc([N+](=O)[O-])cc1[N+](=O)[O-] (configuration not stated) | 44.5 µM (inactive) | 33.7 µM (inactive) | 21 µM (inactive) | 14.5 µM (inactive) | 39.1 µM (inactive) | 36.2 µM (inactive) | 16.8 µM (inactive) | 21.5 µM (inactive) | > 56.1 µM (inactive) | > 84.7 µM (inactive) | 20.7 µM (inactive) | > 82.4 µM (inactive) | 25.9 µM (inactive) | > 100 µM (inactive) | 14.7 µM (inactive) | 29 µM (inactive) | 20.7 µM (inactive) | 21.4 µM (inactive)
15 | CCn1c(CSc2nc(-c3ccccc3)c(-c3ccccc3)[nH]2)n[nH]c1=S | > 100 µM (inactive) | 51.4 µM (inactive) | > 100 µM (inactive) |  | > 100 µM (inactive) | > 100 µM (inactive) | > 100 µM (inactive) | > 100 µM (inactive) | > 100 µM (inactive) | > 100 µM (inactive) | > 100 µM (inactive) | > 100 µM (inactive) |  | > 100 µM (inactive) | 0.0243 µM (active) | > 100 µM (inactive) | > 100 µM (inactive) | > 100 µM (inactive)
16 | COc1ccc(N(C)Sc2ccccc2)cc1 | 65.5 µM (inactive) | 56.6 µM (inactive) | 36.6 µM (inactive) | 43.7 µM (inactive) | 24 µM (inactive) | 47.4 µM (inactive) | 45.3 µM (inactive) | 31.1 µM (inactive) | > 100 µM (inactive) | > 100 µM (inactive) | 13.1 µM (inactive) | > 100 µM (inactive) |  |  | > 100 µM (inactive) |  | 15.1 µM (inactive) | 43.7 µM (inactive)
